CCCCn1cc[n+](C)c1.O=S(=O)([O-])C(F)(F)F [1-butyl-3-methylimidazolium trifluoromethanesulfonate]
surface tension liquid-gas [mN/m]
Settings	Wilhelmy plate method	du Nouy method
292.18 K	35.39	–
292.24 K	–	35.4
293.4 K	35.21	–
293.45 K	–	35.17
298.06 K	35.18	–
298.12 K	–	35.2
298.22 K	35.09	–
298.27 K	–	35.1
303.03 K	35.05	–
303.09 K	–	35.09
303.18 K	34.87	–
303.2 K	–	34.98
308.01 K	34.71	–
308.06 K	34.83	–
308.08 K	–	34.85
313.26 K	34.65	–
313.31 K	–	34.63
313.58 K	–	34.59
313.59 K	34.54	–
318.1 K	–	34.44
318.13 K	34.53	–
318.51 K	34.35	–
318.68 K	–	34.36
322.87 K	34.34	–
322.93 K	34.18	–
322.99 K	–	34.22
327.64 K	34.19	34.08
328.05 K	34.03	–
328.09 K	–	33.8
332.66 K	33.85	–
332.74 K	–	33.82
333.21 K	34.01	–
333.25 K	–	33.89
337.68 K	33.81	–
337.83 K	33.74	–
337.84 K	–	33.44
337.92 K	–	33.73
342.72 K	33.61	–
343.12 K	–	33.47
343.53 K	33.47	–
343.61 K	–	33.41
347.73 K	–	33.36
347.79 K	33.54	–
348.54 K	33.28	–
348.64 K	–	32.9
352.45 K	33.27	–
352.7 K	–	33.08
355.89 K	33	–
356 K	–	32.82

CCCCCCn1cc[n+](C)c1.O=S(=O)([O-])C(F)(F)F [1-hexyl-3-methylimidazolium trifluoromethanesulfonate]
surface tension liquid-gas [mN/m]
Settings	Wilhelmy plate method	de Nouy ring method
293.98 K	32.58	–
294.03 K	–	32.64
298.11 K	–	32.37
298.13 K	32.37	–
303.23 K	32.17	–
303.24 K	–	32.19
308.28 K	31.99	–
308.32 K	–	32.01
313.29 K	31.8	–
313.3 K	–	31.86
318.29 K	–	31.66
318.3 K	31.64	–
323.49 K	–	31.42
323.5 K	31.45	–
328.04 K	31.35	–
328.12 K	–	31.25
333.26 K	31.09	–
333.32 K	–	30.89
337.85 K	30.92	–
337.88 K	–	30.81
342.94 K	30.72	–
343.09 K	–	30.5
347.58 K	30.55	–
347.59 K	–	30.38
355.44 K	30.28	30.06
